Columns and labels:
[1] = target: T1, human recombinant histamine H1 receptor (Homo sapiens, UniProt P35367); experiment: Histamine H1 radioligand binding ([3H]Pyrilamine); details: 0.1 μM compound; 0.1 µM
T1 construct: expressed in transfected cells; host or cells: CHO-K1
Description: To evaluate in radioligand binding assays the activity of compounds of the invention, human recombinant histamine H1 receptor expressed in Chinese hamster ovary (CHO) K1 cells (De Backer, M. et al, Biochem. Biophys. Res. Comm. 197(3):1601, 1993) in a modified Tris-HCl buffer (50 mM Tris-HCl, pH 7.4, 2 mM MgCl2, 100 mM NaCl, 250 mM Sucrose) was used. Compounds of the invention were incubated with 1.2 nM [^3H]Pyrilamine for 180 min at 25° C. Non-specific binding was estimated in the presence of 1 μM Pyrilamine. Receptor proteins were filtered and washed, the filters were then counted to determine [^3H]Pyrilamine specifically bound. Compounds were screened at 1 μM or lower, using 1% DMSO as vehicle. Biochemical assay results are presented as the percent inhibition of specific binding in Table 3.

[2] = target: T2, human recombinant adrenergic α2A receptor (Homo sapiens, UniProt P08913); experiment: Adrenergic α2A radioligand binding ([3H]MK-912); details: 0.1 μM compound; 0.1 µM
T2 construct: expressed in transfected cells; host or cells: insect Sf9 cells
T2 sequence (P08913 1-465): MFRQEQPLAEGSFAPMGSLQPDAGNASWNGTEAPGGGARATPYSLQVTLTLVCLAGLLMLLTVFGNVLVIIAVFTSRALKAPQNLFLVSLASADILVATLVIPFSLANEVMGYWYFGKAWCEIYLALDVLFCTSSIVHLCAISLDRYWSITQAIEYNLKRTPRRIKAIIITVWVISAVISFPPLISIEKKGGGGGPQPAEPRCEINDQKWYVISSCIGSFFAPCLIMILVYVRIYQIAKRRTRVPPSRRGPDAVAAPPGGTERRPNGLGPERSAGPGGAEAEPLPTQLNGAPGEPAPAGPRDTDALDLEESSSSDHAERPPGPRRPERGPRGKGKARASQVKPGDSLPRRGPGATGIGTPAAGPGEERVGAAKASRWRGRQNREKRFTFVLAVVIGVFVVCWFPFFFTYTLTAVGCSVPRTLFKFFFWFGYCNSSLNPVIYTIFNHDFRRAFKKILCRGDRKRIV
Description: To evaluate in radioligand binding assays the activity of compounds of the invention, human recombinant adrenergic α2A receptor expressed in insect Sf9 cells (Uhlen, S. et al, J. Pharmacol. Exp. Ther. 271:1558, 1994) in a modified Tris-HCl buffer (50 mM Tris-HCl, pH 7.4, 12.5 mM MgCl2, 2 mM EDTA) was used. Compounds of invention were incubated with 1 nM [^3H]MK-912 for 60 min at 25° C. MK-912 is (2S-trans)-1,3,4,5′,6,6′,7,12b-octahydro-1′,3′-dimethyl-spiro[2H-benzofuro[2,3-a]quinolizine-2,4′(1′H)-pyrimidin]-2′(3′H)-one hydrochloride Non-specific binding was estimated in the presence of 10 μM WB-4101 (2-(2,6-Dimethoxyphenoxyethyl)aminomethyl-1,4-benzodioxane hydrochloride). Receptor proteins were filtered and washed, the filters were then counted to determine [^3H]MK-912 specifically bound. Compounds were screened at 1 μM or lower, using 1% DMSO as vehicle. Biochemical assay results are presented as the percent inhibition of specific binding in Table 3.

[3] = target: T3, human recombinant adrenergic α2B receptor (Homo sapiens, UniProt P18089); experiment: Adrenergic α2B radioligand binding ([3H]Rauwolscine); details: 0.03 μM compound; 0.03 µM
T3 construct: expressed in transfected cells; host or cells: CHO-K1
T3 sequence (P18089 1-450): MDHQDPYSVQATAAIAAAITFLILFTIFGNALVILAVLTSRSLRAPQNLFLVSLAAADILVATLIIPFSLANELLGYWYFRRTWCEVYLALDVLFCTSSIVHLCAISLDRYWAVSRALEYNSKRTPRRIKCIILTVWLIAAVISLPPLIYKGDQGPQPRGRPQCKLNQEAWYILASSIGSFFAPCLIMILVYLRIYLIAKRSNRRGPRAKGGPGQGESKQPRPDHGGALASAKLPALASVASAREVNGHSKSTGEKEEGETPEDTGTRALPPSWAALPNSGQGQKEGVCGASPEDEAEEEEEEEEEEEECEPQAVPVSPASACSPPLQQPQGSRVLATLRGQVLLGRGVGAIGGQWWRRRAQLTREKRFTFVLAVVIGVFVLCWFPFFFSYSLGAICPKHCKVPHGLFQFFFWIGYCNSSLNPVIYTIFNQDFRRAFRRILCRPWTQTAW
Description: To evaluate in radioligand binding assays the activity of compounds of the invention, human recombinant adrenergic α2B receptor expressed in Chinese hamster ovary (CHO) K1 cells (Uhlen, S. et al, Eur. J. Pharmacol. 343(1):93, 1998) in a modified Tris-HCl buffer (50 mM Tris-HCl, pH 7.4, 12.5 mM MgCl2, 1 mM EDTA, 0.2% BSA) was used. Compounds of the invention were incubated with 2.5 nM [^3H]Rauwolscine for 60 min at 25° C. Non-specific binding was estimated in the presence of 10 μM Prazosin. Receptor proteins were filtered and washed, the filters were then counted to determine [^3H]Rauwolscine specifically bound. Compounds were screened at 1 μM or lower, using 1% DMSO as vehicle. Biochemical assay results are presented as the percent inhibition of specific binding in Table 3.

[4] = target: T4, rat adrenergic α1B receptor (Rattus norvegicus, UniProt P15823); experiment: Adrenergic α1B radioligand binding ([3H]Prazosin); details: 0.1 μM compound; 0.1 µM
T4 construct: rat adrenergic α1B receptor obtained from Wistar Rat liver; from tissue; host or cells: Wistar rat liver
T4 sequence (P15823 1-515): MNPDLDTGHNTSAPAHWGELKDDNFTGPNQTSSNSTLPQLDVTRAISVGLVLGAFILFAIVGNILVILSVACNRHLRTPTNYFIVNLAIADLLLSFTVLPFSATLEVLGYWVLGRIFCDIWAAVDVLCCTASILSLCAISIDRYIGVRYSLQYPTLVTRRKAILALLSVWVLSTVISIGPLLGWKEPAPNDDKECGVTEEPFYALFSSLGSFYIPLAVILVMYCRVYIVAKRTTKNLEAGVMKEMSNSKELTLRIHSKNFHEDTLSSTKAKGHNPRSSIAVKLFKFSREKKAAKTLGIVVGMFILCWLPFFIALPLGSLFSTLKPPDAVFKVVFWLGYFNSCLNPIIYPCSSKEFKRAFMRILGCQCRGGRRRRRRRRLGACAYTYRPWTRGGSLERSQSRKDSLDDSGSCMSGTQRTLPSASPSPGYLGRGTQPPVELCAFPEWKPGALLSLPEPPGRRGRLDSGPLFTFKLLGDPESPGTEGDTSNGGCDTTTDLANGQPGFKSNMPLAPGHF
Description: To evaluate in radioligand binding assays the activity of compounds of the invention, rat adrenergic α1B receptor obtained from Wistar Rat liver (Garcia-S'ainz, J. et al, Biochem. Biophys. Res. Commun. 186:760, 1992; Michel, A. et al, Br. J. Pharmacol. 98:883, 1989) in a modified Tris-HCl buffer (50 mM Tris-HCl buffer, pH 7.4, 0.5 mM EDTA) was used. Compounds of the invention were incubated with 0.25 nM [^3H]Prazosin for 60 min at 25° C. Non-specific binding was estimated in the presence of 10 μM phentolamine. Receptor proteins were filtered and washed, the filters were then counted to determine [^3H]Prazosin specifically bound. Compounds were screened at 1 μM or lower, using 1% DMSO as vehicle. Biochemical assay results are presented as the percent inhibition of specific binding in Table 3.

T1 sequence (P35367 whole entry): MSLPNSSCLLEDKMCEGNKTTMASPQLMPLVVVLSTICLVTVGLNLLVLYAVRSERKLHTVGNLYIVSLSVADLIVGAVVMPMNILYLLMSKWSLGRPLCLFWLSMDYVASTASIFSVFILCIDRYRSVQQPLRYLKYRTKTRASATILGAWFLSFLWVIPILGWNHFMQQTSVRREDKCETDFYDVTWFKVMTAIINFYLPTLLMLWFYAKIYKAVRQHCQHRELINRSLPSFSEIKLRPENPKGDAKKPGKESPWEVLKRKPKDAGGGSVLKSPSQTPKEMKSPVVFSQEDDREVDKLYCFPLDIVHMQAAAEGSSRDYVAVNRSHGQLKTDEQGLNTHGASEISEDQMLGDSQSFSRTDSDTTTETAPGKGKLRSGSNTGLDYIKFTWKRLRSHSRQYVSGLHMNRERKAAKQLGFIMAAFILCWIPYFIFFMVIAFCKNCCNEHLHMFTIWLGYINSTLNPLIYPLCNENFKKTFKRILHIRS

Row | Binding data (Percentage inhibition) Histamine H1 (0.1 μM) [1] [%] | Percentage inhibition of ligand binding, Adrenergic α2A [2] [%] | Percentage inhibition of ligand binding, Adrenergic α2B [3] [%] | Percentage inhibition of ligand binding, Adrenergic α1B [4] [%] | Structure (SMILES)
1 | 6 | 8 | 68 | 82 | Cc1ccc2c(c1)c1c(n2CC2(O)CCCc3ccncc32)CCN(C)C1 (single isomer, unassigned) [ii-113b]
2 | – | 45 | 76 | 94 | Cc1ccc2c(c1)c1c(n2CC2(O)CCc3ccccc32)CCN(C)C1 (single isomer, unassigned) [ii-111a]
3 | – | 22 | 0 | 51 | Cc1ccc2c(c1)c1c(n2CC2(O)CCc3ccccc32)CCN(C)C1 (single isomer, unassigned) [ii-111b]

Source: US9035056B2, “Pyrido[4,3-b]indole and pyrido[3,4-b]indole derivatives and methods of use” (Medivation Technologies, Inc., priority 2011, dated 2015)
